Measurements as given in patent publication US20240174618A1, “SUBSTITUTED (2-HETEROARYLOXYPHENYL)SULFONATES, SALTS THEREOF AND THEIR USE AS HERBICIDAL AGENTS” (Bayer Aktiengesellschaft, priority 2021, published 2024).

Experiments:
Assay type in all cases: in vivo
Kochia scoparia (KCHSC) = test: B. Herbicidal post-emergence efficacy, KCHSC; conditions: for Post-emergence efficacy against KCHSC in %: rated visually after about 3 weeks; for Post-emergence efficacy against KCHSC: 1280 g/ha
In short: (§1)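 Post-emergence foliar spray, at application rates of 1280 g/ha or less, on one-leaf-stage plants 2–3 weeks post-sowing, using aqueous WP or EC suspensions with 0.5% additive at 600 L/ha. Visual percent efficacy relative to untreated plants scored roughly 3 weeks later in the greenhouse.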

Poa annua (POAAN) = test: B. Herbicidal post-emergence efficacy, POAAN
In short: as §1

[1] = test system: Alopecurus myosuroides (ALOMY); test: C. Herbicidal pre-emergence efficacy, ALOMY; conditions: scored after about 3 weeks
In short: (§2)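 Pre-emergence test: formulated compounds sprayed as aqueous suspension or emulsion with 0.5% additive at 600 l/ha onto soil covering sown seeds, at rates corresponding to 320 g/ha or less. After about 3 weeks in greenhouse, efficacy scored visually as percent versus untreated controls (100% = plants dead).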

Lolium rigidum (LOLRI) = test: C. Herbicidal pre-emergence efficacy, LOLRI; conditions: scored after about 3 weeks
In short: as §2

Setaria viridis (SETVI) = test: C. Herbicidal pre-emergence efficacy, SETVI; conditions: scored after about 3 weeks
In short: as §2

Viola tricolor (VIOTR) [2] = test: C. Herbicidal pre-emergence efficacy, VIOTR
In short: as §2

[3] = test system: Polygonum convolvulus (POLCO); test: E. Herbicidal post-emergence efficacy, POLCO
In short: (§3)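 Visual scoring against untreated plants was done roughly 3 weeks after spraying (0% = no effect, 100% = plants dead). Spray application at 320 g/ha or lower, 600 l/ha water with 0.5% additive, was made onto green parts of one-leaf-stage greenhouse plants grown 2-3 weeks in sandy loam.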

Viola tricolor (VIOTR) [4] = test: E. Herbicidal post-emergence efficacy, VIOTR
In short: as §3

[5] = test system: Triticum aestivum (TRZAS); test: F. Post-emergence effect on useful plants, TRZAS; conditions: useful plant
In short: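 Visual efficacy rating versus untreated plants, from 0% (no effect) to 100% (plants died), made about 3 weeks after post-emergence treatment. Formulated compounds (WP or EC, 0.5% additive, 600 l/ha water) were sprayed onto greenhouse-grown crops at the one-leaf stage, 2-3 weeks after sowing.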

SMILES | Post-emergence efficacy against KCHSC in % (Kochia scoparia (KCHSC); 80 g/ha) | Post-emergence efficacy against KCHSC in % (Kochia scoparia (KCHSC); 320 g/ha) | Post-emergence efficacy against KCHSC (Kochia scoparia (KCHSC)) | Post-emergence efficacy against POAAN (Poa annua (POAAN); 80 g/ha) | Post-emergence efficacy against POAAN (Poa annua (POAAN); 320 g/ha) | Post-emergence efficacy against POAAN (Poa annua (POAAN); 1280 g/ha) | Pre-emergence efficacy against ALOMY ([1]; 80 g/ha) | Pre-emergence efficacy against ALOMY ([1]; 320 g/ha) | Pre-emergence efficacy against LOLRI (Lolium rigidum (LOLRI); 320 g/ha) | Pre-emergence efficacy against SETVI (Setaria viridis (SETVI); 80 g/ha) | Pre-emergence efficacy against SETVI (Setaria viridis (SETVI); 320 g/ha) | Pre-emergence efficacy against VIOTR in % (Viola tricolor (VIOTR) [2]; application rate 80 g/ha) | Pre-emergence efficacy against VIOTR in % (Viola tricolor (VIOTR) [2]; application rate 320 g/ha) | Post-emergence efficacy against POLCO in % ([3]; application rate 80 g/ha) | Post-emergence efficacy against POLCO in % ([3]; application rate 320 g/ha) | Post-emergence efficacy against VIOTR in % (Viola tricolor (VIOTR) [4]; application rate 320 g/ha) | Post-emergence efficacy against TRZAS in % ([5]; application rate 80 g/ha) | Pre-emergence efficacy against LOLRI (Lolium rigidum (LOLRI); 80 g/ha) | Post-emergence efficacy against VIOTR in % (Viola tricolor (VIOTR) [4]; application rate 80 g/ha) | Post-emergence efficacy against TRZAS in % ([5]; application rate 320 g/ha)
O=S(=O)(CCCCl)Oc1ccccc1Oc1ncc(Cl)cn1 [Example I-2] | 100% | 100% | 100% | 90% | 100% | 100% | 90% | 100% | 100% | 100% | 100% | 100% | 100% | 100% | 100% | 100% | 0% |  |  | 
O=S(=O)(CCCC(F)F)Oc1c(F)cccc1Oc1ncc(Cl)cn1 [Example I-56] | 90% | 90% | 90% | 90% | 90% | 90% | 100% | 100% | 100% | 100% | 100% | 100% | 100% |  | 100% | 100% | 10% | 100% | 100% | 
O=S(=O)(CCC(F)(F)F)Oc1c(F)cccc1Oc1ncc(Cl)cn1 [Example I-48] | 90% | 90% | 90% | 90% | 90% | 90% | 100% | 100% | 100% | 100% | 100% | 100% | 100% | 100% | 100% | 100% | 10% | 90% | 100% | 
O=S(=O)(CCCC(F)(F)F)Oc1c(Cl)cccc1Oc1ncc(Cl)cn1 [Example I-39] | 90% | 90% | 90% |  | 90% | 90% |  | 100% | 100% | 100% | 100% | 100% | 100% |  | 100% | 100% | 0% |  | 100% | 20%
